From ChEMBL document CHEMBL4270485, “Determination of Gymnemic Acid I as a Protein Biosynthesis Inhibitor Using Chemical Proteomics” (J Nat Prod, 2017)

What was measured:
[1] = target: 14-3-3 protein zeta/delta (Homo sapiens) (UniProt P63104); assay: Binding affinity to […] zeta/delta in human Hela cells lysates assessed as protein enrichment by measuring normalized heavy/light ratio at by nano-LC-ESIMS/MS analysis; format: cell-free
[2] = target: T1, 80S Ribosome (Homo sapiens) (UniProt P08865+P42677+P62753+P15880+P23396+P61247+P62701+P22090+P46782+P62081+P62241+P46781+P46783+P62280+P25398+P62277+P62263+P62841+P62244+P62249+P08708+P62269+P39019+P60866+P63220+P62266+P62847+P62851+P62854+P62979+P62857+P62273+P62861+P39023+P36578+P46777+Q02878+P18124+P62424+P62917+P32969+P27635+P62906+P62913+P30050+P26373+P40429+P50914+P61313+P18621+Q07020+Q02543+P84098+P46778+P35268+P62829+P62750+P83731+P61254+P61353+P46776+P46779+P47914+P62888+P62899+P62910+P49207+P42766+P18077+Q9Y3U8+P83881+P61927+P61513+P63173+P62891+P62945+P05388+P05386); assay: Binding affinity to 40S ribosomal protein S14 in human Hela cells lysates assessed as protein enrichment by measuring normalized heavy/light ratio at by nano-LC-ESIMS/MS analysis; format: cell-free
[3] = target: T1, 80S Ribosome (Homo sapiens); assay: Binding affinity to 40S ribosomal protein S2 in human Hela cells lysates assessed as protein enrichment by measuring normalized heavy/light ratio at by nano-LC-ESIMS/MS analysis; format: cell-free
[4] = target: T1, 80S Ribosome (Homo sapiens); assay: Binding affinity to 40S ribosomal protein S24 in human Hela cells lysates assessed as protein enrichment by measuring normalized heavy/light ratio at by nano-LC-ESIMS/MS analysis; format: cell-free
[5] = target: T1, 80S Ribosome (Homo sapiens); assay: Binding affinity to 40S ribosomal protein S4 in human Hela cells lysates assessed as protein enrichment by measuring normalized heavy/light ratio at by nano-LC-ESIMS/MS analysis; format: cell-free
[6] = target: Small ribosomal subunit protein eS6 (Homo sapiens) (UniProt P62753); assay: Binding affinity to 40S ribosomal protein S6 in human Hela cells lysates assessed as protein enrichment by measuring normalized heavy/light ratio at by nano-LC-ESIMS/MS analysis; format: cell-free
[7] = target: T1, 80S Ribosome (Homo sapiens); assay: Binding affinity to 60S ribosomal protein L10 in human Hela cells lysates assessed as protein enrichment by measuring normalized heavy/light ratio at by nano-LC-ESIMS/MS analysis; format: cell-free
[8] = target: T1, 80S Ribosome (Homo sapiens); assay: Binding affinity to 60S ribosomal protein L23 in human Hela cells lysates assessed as protein enrichment by measuring normalized heavy/light ratio at by nano-LC-ESIMS/MS analysis; format: cell-free
[9] = target: T1, 80S Ribosome (Homo sapiens); assay: Binding affinity to 60S ribosomal protein L38 in human Hela cells lysates assessed as protein enrichment by measuring normalized heavy/light ratio at by nano-LC-ESIMS/MS analysis; format: cell-free
[10] = target: T1, 80S Ribosome (Homo sapiens); assay: Binding affinity to 60S ribosomal protein L9 in human Hela cells lysates assessed as protein enrichment by measuring normalized heavy/light ratio at by nano-LC-ESIMS/MS analysis; format: cell-free
[11] = target: Endoplasmic reticulum chaperone BiP (Homo sapiens) (UniProt P11021); assay: Binding affinity to 78 kDa glucose-regulated protein in human Hela cells lysates assessed as protein enrichment by measuring normalized heavy/light ratio at by nano-LC-ESIMS/MS analysis; format: cell-free
Chain of Endoplasmic reticulum chaperone BiP (Homo sapiens) (P11021 whole entry): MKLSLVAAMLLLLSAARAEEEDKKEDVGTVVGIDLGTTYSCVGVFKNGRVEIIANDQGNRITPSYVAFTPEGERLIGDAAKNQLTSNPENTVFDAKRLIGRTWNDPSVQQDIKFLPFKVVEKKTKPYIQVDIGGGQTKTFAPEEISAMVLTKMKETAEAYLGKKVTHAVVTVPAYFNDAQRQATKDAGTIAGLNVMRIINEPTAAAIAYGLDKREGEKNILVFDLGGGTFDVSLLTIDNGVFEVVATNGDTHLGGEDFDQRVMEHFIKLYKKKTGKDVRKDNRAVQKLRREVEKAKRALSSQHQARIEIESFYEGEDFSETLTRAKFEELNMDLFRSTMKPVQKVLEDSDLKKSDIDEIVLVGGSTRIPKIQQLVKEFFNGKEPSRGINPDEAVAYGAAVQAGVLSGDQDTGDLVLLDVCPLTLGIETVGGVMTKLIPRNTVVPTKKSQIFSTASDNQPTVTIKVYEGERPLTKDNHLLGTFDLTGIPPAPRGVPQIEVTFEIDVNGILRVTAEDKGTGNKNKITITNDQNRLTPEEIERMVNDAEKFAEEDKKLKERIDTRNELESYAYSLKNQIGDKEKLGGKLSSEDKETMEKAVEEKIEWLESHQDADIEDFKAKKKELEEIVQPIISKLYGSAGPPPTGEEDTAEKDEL

[12] = target: Elongation factor 1-gamma (Homo sapiens) (UniProt P26641); assay: Binding affinity to elongation factor 1-gamma in human Hela cells lysates assessed as protein enrichment by measuring normalized heavy/light ratio at by nano-LC-ESIMS/MS analysis; format: cell-free
Chain of Elongation factor 1-gamma (Homo sapiens) (P26641 whole entry): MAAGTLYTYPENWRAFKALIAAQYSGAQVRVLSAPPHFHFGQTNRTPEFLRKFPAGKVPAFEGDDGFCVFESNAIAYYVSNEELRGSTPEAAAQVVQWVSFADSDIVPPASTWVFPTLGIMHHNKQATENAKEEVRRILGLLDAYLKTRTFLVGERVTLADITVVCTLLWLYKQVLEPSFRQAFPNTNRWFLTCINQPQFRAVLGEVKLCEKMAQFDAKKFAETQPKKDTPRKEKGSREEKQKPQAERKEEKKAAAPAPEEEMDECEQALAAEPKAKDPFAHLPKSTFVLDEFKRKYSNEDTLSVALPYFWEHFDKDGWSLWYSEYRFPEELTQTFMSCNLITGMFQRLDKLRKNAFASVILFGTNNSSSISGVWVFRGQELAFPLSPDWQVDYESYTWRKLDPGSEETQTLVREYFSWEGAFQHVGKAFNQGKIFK

[13] = target: Eukaryotic initiation factor 4A-II (Homo sapiens) (UniProt Q14240); assay: Binding affinity to eukaryotic initiation factor 4A-II in human Hela cells lysates assessed as protein enrichment by measuring normalized heavy/light ratio at by nano-LC-ESIMS/MS analysis; format: cell-free
Chain of Eukaryotic initiation factor 4A-II (Homo sapiens) (Q14240 whole entry): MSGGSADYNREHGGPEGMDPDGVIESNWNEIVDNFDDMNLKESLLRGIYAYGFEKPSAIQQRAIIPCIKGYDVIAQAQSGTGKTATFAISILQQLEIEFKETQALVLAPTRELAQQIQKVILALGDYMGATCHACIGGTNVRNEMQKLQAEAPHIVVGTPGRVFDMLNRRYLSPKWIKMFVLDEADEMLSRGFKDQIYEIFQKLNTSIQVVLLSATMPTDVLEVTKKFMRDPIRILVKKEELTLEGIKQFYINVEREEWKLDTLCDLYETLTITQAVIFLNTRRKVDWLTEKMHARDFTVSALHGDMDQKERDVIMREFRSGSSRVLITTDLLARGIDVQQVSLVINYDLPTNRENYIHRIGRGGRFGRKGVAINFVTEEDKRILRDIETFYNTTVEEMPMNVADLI

[14] = target: Peptidyl-prolyl cis-trans isomerase A (Homo sapiens) (UniProt P62937); assay: Binding affinity to peptidyl-prolylcis-trans isomerase in human Hela cells lysates assessed as protein enrichment by measuring normalized heavy/light ratio at by nano-LC-ESIMS/MS analysis; format: cell-free
Chain of Peptidyl-prolyl cis-trans isomerase A (Homo sapiens) (P62937 whole entry, looked up): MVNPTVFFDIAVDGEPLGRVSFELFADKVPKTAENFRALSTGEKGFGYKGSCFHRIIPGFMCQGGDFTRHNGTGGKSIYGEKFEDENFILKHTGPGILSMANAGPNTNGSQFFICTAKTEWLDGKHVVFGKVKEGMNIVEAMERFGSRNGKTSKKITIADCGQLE

[15] = target: Solute carrier family 25 member 3 (Homo sapiens) (UniProt Q00325); assay: Binding affinity to phosphate carrier protein in human Hela cells lysates assessed as protein enrichment by measuring normalized heavy/light ratio at by nano-LC-ESIMS/MS analysis; format: cell-free
Chain of Solute carrier family 25 member 3 (Homo sapiens) (Q00325 whole entry): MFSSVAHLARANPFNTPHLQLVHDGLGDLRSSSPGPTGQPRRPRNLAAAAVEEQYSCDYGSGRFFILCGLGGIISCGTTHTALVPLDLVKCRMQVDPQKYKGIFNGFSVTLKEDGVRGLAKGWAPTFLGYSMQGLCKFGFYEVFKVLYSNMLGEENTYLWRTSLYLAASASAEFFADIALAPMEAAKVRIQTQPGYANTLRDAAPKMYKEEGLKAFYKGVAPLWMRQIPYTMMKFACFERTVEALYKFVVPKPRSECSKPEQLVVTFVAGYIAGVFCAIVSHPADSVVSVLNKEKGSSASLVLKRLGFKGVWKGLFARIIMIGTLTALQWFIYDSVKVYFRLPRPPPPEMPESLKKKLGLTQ

[16] = target: Phosphoglycerate kinase 1 (Homo sapiens) (UniProt P00558); assay: Binding affinity to phosphoglycerate kinase 1 in human Hela cells lysates assessed as protein enrichment by measuring normalized heavy/light ratio at by nano-LC-ESIMS/MS analysis; format: cell-free
Chain of Phosphoglycerate kinase 1 (Homo sapiens) (P00558 whole entry): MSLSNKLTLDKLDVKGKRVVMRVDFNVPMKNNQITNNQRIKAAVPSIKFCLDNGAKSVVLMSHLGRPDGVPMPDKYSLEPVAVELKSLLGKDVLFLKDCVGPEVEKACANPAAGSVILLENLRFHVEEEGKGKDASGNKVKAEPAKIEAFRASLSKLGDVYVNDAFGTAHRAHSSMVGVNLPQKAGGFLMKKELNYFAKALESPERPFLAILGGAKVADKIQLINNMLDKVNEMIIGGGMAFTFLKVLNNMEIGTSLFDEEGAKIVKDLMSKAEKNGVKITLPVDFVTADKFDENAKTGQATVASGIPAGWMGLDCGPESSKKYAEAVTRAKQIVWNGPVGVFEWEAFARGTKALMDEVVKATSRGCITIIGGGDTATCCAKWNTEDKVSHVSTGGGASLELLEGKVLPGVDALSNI

[17] = target: Programmed cell death protein 6 (Homo sapiens) (UniProt O75340); assay: Binding affinity to programmed cell death protein 6 in human Hela cells lysates assessed as protein enrichment by measuring normalized heavy/light ratio at by nano-LC-ESIMS/MS analysis; format: cell-free
Chain of Programmed cell death protein 6 (Homo sapiens) (O75340 whole entry): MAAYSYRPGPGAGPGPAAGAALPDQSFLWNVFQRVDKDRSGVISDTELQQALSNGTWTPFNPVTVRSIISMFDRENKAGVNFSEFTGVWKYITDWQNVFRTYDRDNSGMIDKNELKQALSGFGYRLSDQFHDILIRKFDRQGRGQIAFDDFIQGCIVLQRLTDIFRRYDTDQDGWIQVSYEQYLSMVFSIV

[18] = target: Rho-related GTP-binding protein RhoQ (Homo sapiens) (UniProt P17081); assay: Binding affinity to rho-related GTP-binding protein in human Hela cells lysates assessed as protein enrichment by measuring normalized heavy/light ratio at by nano-LC-ESIMS/MS analysis; format: cell-free
Chain of Rho-related GTP-binding protein RhoQ (Homo sapiens) (P17081 whole entry): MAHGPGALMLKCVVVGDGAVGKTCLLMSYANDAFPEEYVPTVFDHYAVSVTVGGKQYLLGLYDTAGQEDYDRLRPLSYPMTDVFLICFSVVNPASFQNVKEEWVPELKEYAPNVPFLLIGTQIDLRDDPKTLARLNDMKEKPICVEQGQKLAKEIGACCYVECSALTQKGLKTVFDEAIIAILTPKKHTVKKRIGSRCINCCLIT

[19] = Binding affinity to brain acid soluble protein 1 in human Hela cells lysates assessed as protein enrichment by measuring normalized heavy/light ratio at by nano-LC-ESIMS/MS analysis

Chain of 14-3-3 protein zeta/delta (Homo sapiens) (P63104 whole entry): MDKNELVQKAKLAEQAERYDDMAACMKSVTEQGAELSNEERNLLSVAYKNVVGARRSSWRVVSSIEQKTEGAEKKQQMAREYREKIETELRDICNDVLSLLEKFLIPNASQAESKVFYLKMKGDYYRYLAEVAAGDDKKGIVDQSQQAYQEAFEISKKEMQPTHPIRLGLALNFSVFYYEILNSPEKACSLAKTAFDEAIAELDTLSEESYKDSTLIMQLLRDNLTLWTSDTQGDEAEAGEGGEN

`C/C=C(\C)C(=O)O[C@H]1[C@H](O)[C@]2(COC(C)=O)[C@@H](O)C[C@]3(C)C(=CC[C@@H]4[C@@]5(C)CC[C@H](O[C@@H]6O[C@H](C(=O)O)[C@@H](O)[C@H](O)[C@H]6O)[C@@](C)(CO)[C@@H]5CC[C@]43C)[C@@H]2CC1(C)C` gave a Ratio [1] of 0.62, a Ratio [2] of 0.405 and a Ratio [3] of 0.114. The Ratio [4] was 0.173, the Ratio [5] was 0.16 and the Ratio [6] was 0.317. It also gave a Ratio [7] of 0.105, a Ratio [8] of 0.527 and a Ratio [9] of 0.33. For the same molecule, the Ratio [10] was 0.453, the Ratio [11] was 0.527 and the Ratio [12] was 0.536. The Ratio [13] was 0.404, the Ratio [14] was 1.21 and the Ratio [15] was 0.57. It also gave a Ratio [16] of 0.665, a Ratio [17] of 0.68 and a Ratio [18] of 0.706. It also gave a Ratio [19] of 0.744.
